From PubChem BioAssay AID651547 (The Scripps Research Institute Molecular Screening Center, 2012)
Activity calls are given as the source filed them.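 The calls were made as follows: active = potency, meaning EC50, at or under 10 µM; inactive = the rest.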

biological target: Melanocortin receptor 4 (Homo sapiens) (UniProt P32245); experiment: activators of MC4R Gs-cAMP pathway – cell-based, FRET, agonists, late-stage follow-up (AID 651547); conditions: MC4R-expressing cells, cAMP TR-FRET (LANCE Ultra), agonist
Sequence (P32245 whole entry, looked up): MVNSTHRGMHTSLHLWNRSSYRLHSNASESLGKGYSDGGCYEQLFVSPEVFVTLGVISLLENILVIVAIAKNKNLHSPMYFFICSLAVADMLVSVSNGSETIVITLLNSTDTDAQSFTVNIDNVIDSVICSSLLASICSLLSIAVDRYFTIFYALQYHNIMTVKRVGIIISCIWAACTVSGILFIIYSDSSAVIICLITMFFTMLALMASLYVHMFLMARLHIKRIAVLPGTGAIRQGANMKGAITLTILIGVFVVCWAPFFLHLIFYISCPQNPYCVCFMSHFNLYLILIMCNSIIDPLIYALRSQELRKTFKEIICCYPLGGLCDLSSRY

| Structure (SMILES) | EC50 |
| --- | --- |
| CCC1CCCCN1S(=O)(=O)c1ccc(NC(=O)c2ccnc(SC)n2)cc1 (centres undefined) | > 50 µM (inactive) |
| COc1ccc(N(C(C)=O)C(C(=O)NC2CCCC2)c2cccs2)cc1OC (centres undefined) | > 50 µM (inactive) |
| CNC(=O)c1cc(Oc2ccc(NC(=O)CNc3ccc(Cl)c(C(F)(F)F)c3)cc2)ccn1 | > 50 µM (inactive) |
| CCC1CCCCN1S(=O)(=O)c1ccc(NC(=O)c2ccccc2)cc1 (centres undefined) | > 50 µM (inactive) |
| CNC(=O)c1cc(Oc2ccc(NC(=O)Nc3ccc(Cl)c(C(F)(F)F)c3)cc2)ccn1 | > 50 µM (inactive) |
| CCC1CCCCN1S(=O)(=O)c1ccc(NC(=O)c2nc(S(C)(=O)=O)ncc2Cl)cc1 (centres undefined) | > 50 µM (inactive) |
| CNC(=O)c1cc(Oc2ccc(NCC(=O)Nc3ccc(Cl)c(C(F)(F)F)c3)cc2)ccn1 | > 50 µM (inactive) |
| C#CC(=O)N(c1ccc(OC)c(OC)c1)C(C(=O)NC1CCCC1)c1cccs1 (centres undefined) | > 50 µM (inactive) |
| COc1ccccc1C1(CCNC(C)c2cccs2)CCOC(C(C)C)C1 (centres undefined) | > 50 µM (inactive) |
| O=C1c2cccc3cccc(c23)C(=O)N1CC1CCN(CC(O)COc2ccc3ccccc3c2)CC1 (centres undefined) | > 50 µM (inactive) |
| CC1CCCCN1S(=O)(=O)c1ccc(NC(=O)c2nc(S(C)(=O)=O)ncc2Cl)cc1 (centres undefined) | > 50 µM (inactive) |
| CCC1CCCCN1S(=O)(=O)c1ccc(NC(=O)c2cccc(S(C)(=O)=O)c2)cc1 (centres undefined) | > 50 µM (inactive) |
| Cc1ccccc1CN1Cc2cnnn2-c2ccccc2C1C#N (centres undefined) | > 50 µM (inactive) |
| CC(=O)c1ccc(Nc2nc3ccc(C(=O)N(CCC(C)C)CCC(C)C)cc3n2CCCN2CCCCC2)cc1 | > 50 µM (inactive) |
